In PubChem BioAssay AID1963846 (Molecular Pharmacology Branch, DTP, NCI, 2024):

System: 454973-116-R2-J3-PDC complex spheroid viability
Assay: Anticancer human tumor 454973-116-R2-J3-PDC patient-derived pancreatic carcinoma cell line growth inhibition [POLQ]
Conditions: for IC50: curve of first compound; for viability, T/C: stronger effect = lower value
How it was run: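 Three-cell-type spheroids modelling solid tumor plus stroma served as the readout system; POL inhibitors were tested individually and in combination, concentration ranges set by clinical Cmax where known.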

[1] = second compound 0.0316 µM, first compound 0.0316 µM
[2] = second compound 0.0316 µM, first compound 0.1 µM
[3] = second compound 0.0316 µM, first compound 0.316 µM
[4] = second compound 0.0316 µM, first compound 1 µM
[5] = second compound 0.0316 µM, first compound 3.16 µM
[6] = second compound 0.0316 µM, first compound 10 µM
[7] = second compound 0.1 µM, first compound 0.0316 µM
[8] = second compound 0.1 µM, first compound 0.1 µM
[9] = second compound 0.1 µM, first compound 0.316 µM
[10] = second compound 0.1 µM, first compound 1 µM
[11] = second compound 0.1 µM, first compound 3.16 µM
[12] = second compound 0.1 µM, first compound 10 µM
[13] = second compound 0.316 µM, first compound 0.0316 µM
[14] = second compound 0.316 µM, first compound 0.1 µM
[15] = second compound 0.316 µM, first compound 0.316 µM
[16] = second compound 0.316 µM, first compound 1 µM
[17] = second compound 0.316 µM, first compound 3.16 µM
[18] = second compound 0.316 µM, first compound 10 µM
[19] = second compound 1 µM, first compound 0.0316 µM
[20] = second compound 1 µM, first compound 0.1 µM
[21] = second compound 1 µM, first compound 0.316 µM
[22] = second compound 1 µM, first compound 1 µM
[23] = second compound 1 µM, first compound 3.16 µM
[24] = second compound 1 µM, first compound 10 µM
[25] = second compound 3.16 µM, first compound 0.0316 µM
[26] = second compound 3.16 µM, first compound 0.1 µM
[27] = second compound 3.16 µM, first compound 0.316 µM
[28] = second compound 3.16 µM, first compound 1 µM
[29] = second compound 3.16 µM, first compound 3.16 µM
[30] = second compound 3.16 µM, first compound 10 µM
[31] = second compound 10 µM, first compound 0.0316 µM
[32] = second compound 10 µM, first compound 0.1 µM
[33] = second compound 10 µM, first compound 0.316 µM
[34] = second compound 10 µM, first compound 1 µM
[35] = second compound 10 µM, first compound 3.16 µM
[36] = second compound 10 µM, first compound 10 µM
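Also: spheroids exposed to drugs for seven days before measurement.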
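For viability, T/C in this document: percent viability relative to DMSO vehicle control wells taken as 100%.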

Compound: COc1cc(C2c3cc4c(cc3C(OC3OC5COC(C)OC5C(O)C3O)C3COC(=O)C23)OCO4)cc(OC)c1O (centres undefined) + Nc1ccc(C#CCN(C(=O)Cc2ncc(C(F)(F)F)cc2C(F)(F)F)c2ccc(F)cc2)nn1
- IC50 (second compound 0.0316 µM): 934 nM
- IC50 (second compound 0.1 µM): 923 nM
- IC50 (second compound 0.316 µM): 817 nM
- IC50 (second compound 1 µM): 785 nM
- IC50 (second compound 3.16 µM): 775 nM
- IC50 (second compound 10 µM): 771 nM
- viability, T/C [1]: 98.2%
- viability, T/C [2]: 94.3%
- viability, T/C [3]: 78.4%
- viability, T/C [4]: 50.9%
- viability, T/C [5]: 14.2%
- viability, T/C [6]: 8.22%
- viability, T/C [7]: 107%
- viability, T/C [8]: 102%
- viability, T/C [9]: 84.1%
- viability, T/C [10]: 49.8%
- viability, T/C [11]: 12.3%
- viability, T/C [12]: 7.75%
- viability, T/C [13]: 98.5%
- viability, T/C [14]: 106%
- viability, T/C [15]: 82.7%
- viability, T/C [16]: 42.6%
- viability, T/C [17]: 15.1%
- viability, T/C [18]: 5.73%
- viability, T/C [19]: 112%
- viability, T/C [20]: 94.6%
- viability, T/C [21]: 79.1%
- viability, T/C [22]: 44.3%
- viability, T/C [23]: 12.8%
- viability, T/C [24]: 7.26%
- viability, T/C [25]: 107%
- viability, T/C [26]: 109%
- viability, T/C [27]: 80.3%
- viability, T/C [28]: 42%
- viability, T/C [29]: 12.3%
- viability, T/C [30]: 5.16%
- viability, T/C [31]: 115%
- viability, T/C [32]: 104%
- viability, T/C [33]: 79.3%
- viability, T/C [34]: 43.5%
- viability, T/C [35]: 10.6%
- viability, T/C [36]: 5.67%

Compound: Nc1ccn(C2OC(CO)C(O)C2(F)F)c(=O)n1 (centres undefined) + Nc1ccc(C#CCN(C(=O)Cc2ncc(C(F)(F)F)cc2C(F)(F)F)c2ccc(F)cc2)nn1
- IC50 (second compound 0.0316 µM): < 31.6 nM
- IC50 (second compound 0.1 µM): < 31.6 nM
- IC50 (second compound 0.316 µM): < 31.6 nM
- IC50 (second compound 1 µM): < 31.6 nM
- IC50 (second compound 3.16 µM): < 31.6 nM
- IC50 (second compound 10 µM): < 31.6 nM
- viability, T/C [1]: 6.99%
- viability, T/C [2]: 8.25%
- viability, T/C [3]: 7.01%
- viability, T/C [4]: 6.38%
- viability, T/C [5]: 8.02%
- viability, T/C [6]: 5.63%
- viability, T/C [7]: 8.85%
- viability, T/C [8]: 7.54%
- viability, T/C [9]: 7.93%
- viability, T/C [10]: 6.21%
- viability, T/C [11]: 7.06%
- viability, T/C [12]: 5.26%
- viability, T/C [13]: 7.49%
- viability, T/C [14]: 6.66%
- viability, T/C [15]: 6.67%
- viability, T/C [16]: 7.27%
- viability, T/C [17]: 6.52%
- viability, T/C [18]: 5.87%
- viability, T/C [19]: 9.44%
- viability, T/C [20]: 6.21%
- viability, T/C [21]: 6.52%
- viability, T/C [22]: 6.07%
- viability, T/C [23]: 6.68%
- viability, T/C [24]: 5.65%
- viability, T/C [25]: 9.42%
- viability, T/C [26]: 6.2%
- viability, T/C [27]: 6.31%
- viability, T/C [28]: 6.8%
- viability, T/C [29]: 7.81%
- viability, T/C [30]: 5.38%
- viability, T/C [31]: 7.43%
- viability, T/C [32]: 5.82%
- viability, T/C [33]: 5.66%
- viability, T/C [34]: 6.28%
- viability, T/C [35]: 7.1%
- viability, T/C [36]: 4.05%
